Publication PMC7089965 (Frontiers in Microbiology, 2020)
Converted amounts (≈) assume the structure as drawn. Like-named read-outs stand apart in the source and are kept apart here. Where a SMILES comes first, the peptide text is derived from it. [ ]: non-standard residue; d: D form. Nspe = C[C@H](NCC(=O)O)c1ccccc1; NHexGly = CCCCCCNCC(=O)O; Nlys = NCCCCNCC(=O)O

Legend:
M. bovis BCG = settings: broth microdilution, 10^6 CFU/mL, 7 days, 37°C, OD595 and visual
M. tuberculosis CSU87 = settings: 7 days, CFU enumeration, three independent experiments
[1] = tested on: MDR clinical isolate M. tuberculosis CSU87; settings: broth microdilution, 10^6 CFU/mL, 7 days, 37°C, OD595 and visual

Compound	MIC BCG (M. bovis BCG)	killing of CSU87 (M. tuberculosis CSU87; 2 × MIC (8 mg/L))	killing of CSU87 (M. tuberculosis CSU87; 4 × MIC (16 mg/L))	MIC CSU87 [1]
CCCCCCNCC(=O)N(CC(=O)N(CCCCN)CC(N)=O)[C@@H](C)c1ccccc1 [BM 1]	16 to 32 µg/mL	–	–	–
CCCCCCNCC(=O)N(CC(=O)N(CCCCN)CC(=O)N(CCCCCC)CC(=O)N(CC(=O)N(CCCCN)CC(N)=O)[C@@H](C)c1ccccc1)[C@@H](C)c1ccccc1 [BM 2] (H-[NHexGly][Nspe][Nlys][NHexGly][Nspe][Nlys]-NH2)	2 to 4 µg/mL	> 99%	99.9%	4 µg/mL (≈ 4.55 µM)
CCCCCCNCC(=O)N(CC(=O)N(CCCCN)CC(=O)N(CCCCCC)CC(=O)N(CC(=O)N(CCCCN)CC(=O)N(CCCCCC)CC(=O)N(CC(=O)N(CCCCN)CC(N)=O)[C@@H](C)c1ccccc1)[C@@H](C)c1ccccc1)[C@@H](C)c1ccccc1 [BM 3] (H-[NHexGly][Nspe][Nlys][NHexGly][Nspe][Nlys][NHexGly][Nspe][Nlys]-NH2)	4 to 8 µg/mL	–	–	16 µg/mL (≈ 12.2 µM)
